# Values joined by “and” are separate entries in the source; they are usually repeats but may differ in a detail not shown here. Equal entries are not always repeated. Where two headings read alike, the source gives them in different places.
# Assays:
# [1] = biological target: T1, TXA2 /PGH2 receptor of the platelet membranes (Homo sapiens, UniProt P21731); assay: Specific binding of tritiated SQ29,548 to the TXA2/PGH2 receptor of platelet membranes whose PC's or PE's are enriched in 18:2n-6 or DHA; conditions: for effect on the TXA2 /PGH2 receptor (dissociation constant of SQ29.548): platelet membranes enriched, in words
# T1 construct: TXA2 /PGH2 receptor, to platelet membranes whose PC's or PE's are enriched either in 18:2n-6 or in DHA; from tissue; host or cells: platelet membranes (phospholipids exchanged with maize or endogenous platelet transfer protein)
# T1 sequence (P21731 1-343): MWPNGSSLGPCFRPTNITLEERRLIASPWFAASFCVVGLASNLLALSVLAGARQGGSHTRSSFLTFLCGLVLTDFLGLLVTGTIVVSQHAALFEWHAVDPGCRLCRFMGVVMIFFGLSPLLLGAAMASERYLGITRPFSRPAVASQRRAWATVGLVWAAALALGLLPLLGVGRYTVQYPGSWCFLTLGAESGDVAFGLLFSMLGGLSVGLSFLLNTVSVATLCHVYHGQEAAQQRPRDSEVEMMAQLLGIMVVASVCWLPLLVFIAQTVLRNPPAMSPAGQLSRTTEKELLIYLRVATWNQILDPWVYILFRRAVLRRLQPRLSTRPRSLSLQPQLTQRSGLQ
# Experimental: The diacyl-glycerophosphocholines of the platelet membranes were replaced either with 1-palmitoyl-2-docosa-hexaenoyl-glycerophosphocholine (bars with vertical stripes, "22:6n-3"), or with 1-palmitoyl-2-linoloyl-glycerophosphocholine (bars with horizontal stripes, "18:2n-6"), using the endogenous transfer protein of the platelets which is specific for the phosphatidylinositols and phosphatidylcholines. The control platelet membranes (black bars, "control") are obtained by incubation without addition of phospholipids. The data for the graph represent the mean±S.D. of three independent tests.
# The diacyl-glycerophosphoethanolamines of the platelet membranes were replaced either with 1-palmitoyl-2-docosahexaenoyl-glycerophosphoethanolamine (bars with vertical stripes, "22:6n-3"), or with 1-palmitoyl-2-linoloyl-glycerophosphoethanolamine (bars with horizontal stripes "18:2n-6"), using the lipid transfer protein purified from maize. The control platelet membranes (black bars, "control") are obtained by incubation without addition of phospholipids. The data for the graph represent the mean±S.D. of three independent tests.
# Preparations of esterified DHA into various classes of phospholipids were carried out using phospholipid transfer proteins in order to enrich, in a specific manner, the phosphatidylcholines (PC) and the phosphatidylethanolamines (PE) of the platelet membranes in linoleic acid (18:2n-6) and in DHA (49). In particular, the transfer protein (PT), which is specific for the PC's and purified from bovine liver, was used to modify the composition of molecular species of the PC's of erythrocytes (49).
# In the procedure used in the present example, the endogenous quantity of platelet phospholipids is not altered by the transfer carried out by means of the maize or platelet PT; nevertheless, the phospholipids were enriched in 18:2n-6 or in DHA.
# The influence of the fatty acids on the TXA2 /PGH2 receptor was established by measuring the specific binding of tritiated SQ29,548, a competitive antagonist of the TXA2 /PGH2 receptor, to platelet membranes whose PC's or PE's are enriched either in 18:2n-6 or in DHA.
# brain = assay: Distribution of the radioactivity between the lipid classes of the brain after intravenous injection of lyso-PCDHA or non-esterified DHA; assay type: in vivo, rat; conditions: injection of non-esterified DHA
# From the text: (§1) The animal studied is a 20-day-old rat in which the cerebral lipid metabolism is at its peak.
# (§2) The lyso-PC's are labelled on the fatty acid and the choline, attached to albumin and administered intravenously (50). […] It therefore appears that the lyso-PCDHA's attached to albumin constitute a particularly preferred form of supply of DHA to the developing brain.
# kidney = assay: Capture by the kidney, in rats, of lyso-PCDHA and non-esterified DHA; assay type: in vivo; conditions: 20-day-old rat, intravenous; lyso-PCDHA vs non-esterified DHA
# From the text: FIG. 3 represents the variation of the radio-activity recovered in the total lipids: A from the brain, B from the kidney, C from the heart and D from the liver, after injecting tritiated DHA in free form (black circle) or in the form of 2-DHA-1-lyso-PC (black triangle).
# as §1, §2
# [2] = individual test, platelet membranes, PE's enriched
# [3] = individual test, platelet membranes, PE's enriched, read-out: Kd of SQ 29.548
# [4] = mean of three tests, PE's enriched
# [5] = mean of three tests, PE's enriched, read-out: Kd of SQ 29.548
# [6] = individual test, platelet membranes, PC's enriched
# [7] = mean of three tests, PC's enriched
structure (smiles),measurement,setting,value
"CCCCC/C=C\C/C=C\CCCCCCCC(=O)OC(COC(=O)CCCCCCCCCCCCCCC)COP(=O)(O)OCCN (stereo not shown) [PE 18:2n-6, 1-palmitoyl-2-linoloyl-glycerophosphoethanolamine]",Bmax of SQ 29.548,[1]; [2],1.89 pmol/mg prot. and 2.26 pmol/mg prot. and 2.07 pmol/mg prot.
same,Hill Coefficient,[1]; [2],0.94 and 1.00 and 1.05
same,Kd,[1]; [3],3.11 nM and 4.31 nM and 4.92 nM
same,Bmax of SQ 29.548,[1]; [4],2.07 ± 0.19 pmol/mg prot.
same,Hill Coefficient,[1]; [4],1.00 ± 0.06
same,Kd,[1]; [5],4.11 ± 0.92 nM
same,effect on the TXA2 /PGH2 receptor (dissociation constant of SQ29.548),[1],no effect on the receptor
"CC/C=C\C/C=C\C/C=C\C/C=C\C/C=C\C/C=C\CCC(=O)O [non-esterified DHA, docosahexaenoic acid, reference compound]",radioactivity in LN + AG of the brain,brain; 2.5 min,36.7 % of the radioactivity of the total lipids
same,radioactivity in PC of the brain,brain; 2.5 min,18.8 % of the radioactivity of the total lipids
same,radioactivity in PE of the brain,brain; 2.5 min,37.5 % of the radioactivity of the total lipids
same,radioactivity in PI of the brain,brain; 2.5 min,2.7 % of the radioactivity of the total lipids
same,radioactivity in PS of the brain,brain; 2.5 min,4.0 % of the radioactivity of the total lipids
same,radioactivity in LN + AG of the brain,brain; 5 min,19.0 % of the radioactivity of the total lipids
same,radioactivity in PC of the brain,brain; 5 min,23.2 % of the radioactivity of the total lipids
same,radioactivity in PE of the brain,brain; 5 min,48.1 % of the radioactivity of the total lipids
same,radioactivity in PI of the brain,brain; 5 min,5.1 % of the radioactivity of the total lipids
same,radioactivity in PS of the brain,brain; 5 min,4.6 % of the radioactivity of the total lipids
same,radioactivity in LN + AG of the brain,brain; 7.5 min,30.0 % of the radioactivity of the total lipids
same,radioactivity in PC of the brain,brain; 7.5 min,21.1 % of the radioactivity of the total lipids
same,radioactivity in PE of the brain,brain; 7.5 min,44.4 % of the radioactivity of the total lipids
same,radioactivity in PI of the brain,brain; 7.5 min,2.6 % of the radioactivity of the total lipids
same,radioactivity in PS of the brain,brain; 7.5 min,1.8 % of the radioactivity of the total lipids
same,radioactivity in LN + AG of the brain,brain; 8 min,31.6 % of the radioactivity of the total lipids
same,radioactivity in PC of the brain,brain; 8 min,19.6 % of the radioactivity of the total lipids
same,radioactivity in PE of the brain,brain; 8 min,40.7 % of the radioactivity of the total lipids
same,radioactivity in PI of the brain,brain; 8 min,3.8 % of the radioactivity of the total lipids
same,radioactivity in PS of the brain,brain; 8 min,4.3 % of the radioactivity of the total lipids
same,radioactivity in LN + AG of the brain,brain; 15 min,20.8 % of the radioactivity of the total lipids
same,radioactivity in PC of the brain,brain; 15 min,25.7 % of the radioactivity of the total lipids
same,radioactivity in PE of the brain,brain; 15 min,49.1 % of the radioactivity of the total lipids
same,radioactivity in PI of the brain,brain; 15 min,3 % of the radioactivity of the total lipids
same,radioactivity in PS of the brain,brain; 15 min,2.9 % of the radioactivity of the total lipids
same,radioactivity in LN + AG of the brain,brain; 30 min,20.4 % of the radioactivity of the total lipids
same,radioactivity in PC of the brain,brain; 30 min,24.8 % of the radioactivity of the total lipids
same,radioactivity in PE of the brain,brain; 30 min,48.4 % of the radioactivity of the total lipids
same,radioactivity in PI of the brain,brain; 30 min,3.4 % of the radioactivity of the total lipids
same,radioactivity in PS of the brain,brain; 30 min,2.9 % of the radioactivity of the total lipids
same,radioactivity in LN + AG of the brain,brain; 60 min,12.5 % of the radioactivity of the total lipids
same,radioactivity in PC of the brain,brain; 60 min,24.3 % of the radioactivity of the total lipids
same,radioactivity in PE of the brain,brain; 60 min,54.1 % of the radioactivity of the total lipids
same,radioactivity in PI of the brain,brain; 60 min,2.8 % of the radioactivity of the total lipids
same,radioactivity in PS of the brain,brain; 60 min,6.3 % of the radioactivity of the total lipids
same,capture by the kidney,kidney,captures the two forms of supply in essentially the same manner
"CC/C=C\C/C=C\C/C=C\C/C=C\C/C=C\C/C=C\CCC(=O)OC(COC(=O)CCCCCCCCCCCCCCC)COP(=O)(O)OCCN (stereo not shown) [PE 22:6n-3, 1-palmitoyl-2-docosahexaenoyl-glycerophosphoethanolamine]",Bmax of SQ 29.548,[1]; [2],1.67 pmol/mg prot. and 1.99 pmol/mg prot. and 1.91 pmol/mg prot.
same,Hill Coefficient,[1]; [2],0.95 and 1.02
same,Kd,[1]; [3],2.92 nM and 4.61 nM and 4.63 nM
same,Bmax of SQ 29.548,[1]; [4],1.86 ± 0.17 pmol/mg prot.
same,Hill Coefficient,[1]; [4],1.00 ± 0.04
same,Kd,[1]; [5],4.05 ± 0.98 nM
same,effect on the TXA2 /PGH2 receptor (dissociation constant of SQ29.548),[1],no effect on the receptor
"CCCCC/C=C\C/C=C\CCCCCCCC(=O)OC(COC(=O)CCCCCCCCCCCCCCC)COP(=O)([O-])OCC[N+](C)(C)C (stereo not shown) [PC 18:2n-6, 1-palmitoyl-2-linoloyl-glycerophosphocholine]",Kd,"[1]; Kd of SQ 29.548, individual test, platelet membranes, PC's enriched",4.64 nM and 3.16 nM and 4.05 nM
same,Kd,"[1]; Kd of SQ 29.548, mean of three tests, PC's enriched, (a) p < 0.05 compared with the control and with PC 18:2n6 for PC 22:6n-3",3.95 ± 0.75 nM
same,Bmax of SQ 29.548,[1]; [6],1.83 pmol/mg prot. and 1.91 pmol/mg prot. and 2.41 pmol/mg prot.
same,Hill Coefficient,[1]; [6],1.00 and 0.94 and 0.90
same,Bmax of SQ 29.548,[1]; [7],2.05 ± 0.31 pmol/mg prot.
same,Hill Coefficient,[1]; [7],0.95 ± 0.05
same,effect on the TXA2 /PGH2 receptor (dissociation constant of SQ29.548),[1],no effect on the receptor
"CC/C=C\C/C=C\C/C=C\C/C=C\C/C=C\C/C=C\CCC(=O)OC(COC(=O)CCCCCCCCCCCCCCC)COP(=O)([O-])OCC[N+](C)(C)C (stereo not shown) [PC 22:6n-3, 1-palmitoyl-2-docosahexaenoyl-glycerophosphocholine]",Bmax of SQ 29.548,[1]; [6],2.94 pmol/mg prot. and 2.09 pmol/mg prot. and 2.40 pmol/mg prot.
same,Hill Coefficient,[1]; [6],0.91 and 1.00 and 0.94
same,Kd,"[1]; individual test, platelet membranes, PC's enriched, read-out: Kd of SQ 29.548",5.69 nM and 8.56 nM and 7.05 nM
same,Bmax of SQ 29.548,[1]; [7],2.48 ± 0.43 pmol/mg prot.
same,Hill Coefficient,[1]; [7],0.95 ± 0.05
same,Kd,"[1]; mean of three tests, PC's enriched, (a) p < 0.05 compared with the control and with PC 18:2n6 for PC 22:6n-3, read-out: Kd of SQ 29.548",7.1 ± 1.44 nM
same,effect on the TXA2 /PGH2 receptor (dissociation constant of SQ29.548),[1],significantly increasing the dissociation constant of SQ29.548
